Assay: Ionization state of the molecule at physiological pH was evaluated by potentiometry.
Type: ADME

Row | Compound | pKa
1 | Nc1ncnc2c1nc(N)n2[C@@H]1O[C@H](CO)[C@@H](O)[C@H]1O | 4
2 | COc1ccc2nc3cc(Cl)ccc3c(N)c2c1 | 8.99
